Activity data for 3 compounds are collected here from ChEMBL document CHEMBL1151350, “Uterotonic effect of Evodia rutaecarpa alkaloids” (1980).

Each structure is given as a SMILES string. The source made the active and inactive calls. The calls are words filed in the database; no cut-off is given here.

Experiment [1] relates to Rattus norvegicus. As to the kind of experiment: In vivo uterotonic activity in estrous Sprague-Dawley rat uterus assessed as maximum peak contraction at 2400 ug/kg, iv within 20 mins by sponge tipped catheter method. The format is functional.
For experiment [2], the species on record is Rattus norvegicus. As to the kind of experiment: In virto uterotonic activity in Sprague-Dawley rat uterus assessed as contraction in presence of methysergide. The format is functional, tissue-based.
Experiment [3] relates to Rattus norvegicus. In words: In vivo uterotonic activity in iv dosed estrous Sprague-Dawley rat uterus assessed as contraction by sponge tipped catheter method. The format is functional.
Experiment [4] is described as follows: In virto uterotonic activity in Sprague-Dawley rat uterus expressed as g-force unit. The format is functional.
Experiment [5] can be described thus: In virto uterotonic activity in Sprague-Dawley rat uterus assessed as contraction. The format is functional.
The species named for experiment [6] is Rattus norvegicus. In words: In virto uterotonic activity in Sprague-Dawley rat uterus assessed as contraction in presence of atropine. The format is functional, tissue-based.
The species named for experiment [7] is Rattus norvegicus. As to the kind of experiment: In virto uterotonic activity in Sprague-Dawley rat uterus assessed as contraction at 20 ug/ml. The format is functional, tissue-based.

Turning to `C[n+]1c2n(c(=O)c3ccccc31)CCc1c-2[nH]c2ccccc12.[Cl-]` [DEHYDROEVODIAMINE CHLORIDE], the Activity in experiment [1] was 25.3 mmHg; in experiment [3], “Dose-dependent effect”; in experiment [3] (record 2), 80 µg/kg; in experiment [4] it was 2.15 g; in experiment [5] it was 0.6 µg/mL. Moreover, the outcome in experiment [2] and in experiment [6] was Active.

Consider `Cl.O=c1c2ccccc2nc2n1CCc1c-2[nH]c2ccccc12` [RUTAECARPINE HYDROCHLORIDE], for which the Activity in experiment [4] was 0.72 g; in experiment [5] it was under 1 µg/mL.

For `CN1c2ccccc2C(=O)N2CCc3c([nH]c4ccccc34)[C@@H]21`, in experiment [7], the outcome was inactive.
